These are literature values, as cited in publication PMC10815991, “Membrane-Bound Redox Enzyme Cytochrome bd-I Promotes Carbon Monoxide-Resistant Escherichia coli Growth and Respiration” (International Journal of Molecular Sciences, 2024).

For one series, the system named is cytochrome bd-II. Conditions: read-out: apparent Km(O2); cited from earlier work.
The next series relates to cytochrome bo3. Conditions: read-out: apparent Km(O2); cited from earlier work.
In another series the test system is cytochrome bd-I heme d2+. Particulars: cited from earlier work.

Like-named read-outs stand apart in the source and are kept apart here.

For `O=O` [O2], the Km (commonly the concentration of substrate that gives half-maximal velocity) in the series on cytochrome bd-II was 2 µM; in the series with cytochrome bo3, 6 µM.
nitric oxide [NO]: the “koff, NO dissociation from heme d^2+” value is 0.133 s⁻¹ in the series with cytochrome bd-I heme d2+ (ref 69) and 0.163 s⁻¹ with cytochrome bd-I heme d2+ (ref 70).
